From PubChem BioAssay AID518 (Sanford-Burnham Center for Chemical Genomics, 2006)
pIC50: −log10 of the molar value.

target: Alkaline phosphatase, tissue-nonspecific isozyme (Homo sapiens) (UniProt P05186); assay: human TNAP enzyme inhibitors, biochemical, luminescent (AID 518); conditions: purified TNAP enzyme, luminescent substrate readout
Sequence (P05186 whole entry, looked up): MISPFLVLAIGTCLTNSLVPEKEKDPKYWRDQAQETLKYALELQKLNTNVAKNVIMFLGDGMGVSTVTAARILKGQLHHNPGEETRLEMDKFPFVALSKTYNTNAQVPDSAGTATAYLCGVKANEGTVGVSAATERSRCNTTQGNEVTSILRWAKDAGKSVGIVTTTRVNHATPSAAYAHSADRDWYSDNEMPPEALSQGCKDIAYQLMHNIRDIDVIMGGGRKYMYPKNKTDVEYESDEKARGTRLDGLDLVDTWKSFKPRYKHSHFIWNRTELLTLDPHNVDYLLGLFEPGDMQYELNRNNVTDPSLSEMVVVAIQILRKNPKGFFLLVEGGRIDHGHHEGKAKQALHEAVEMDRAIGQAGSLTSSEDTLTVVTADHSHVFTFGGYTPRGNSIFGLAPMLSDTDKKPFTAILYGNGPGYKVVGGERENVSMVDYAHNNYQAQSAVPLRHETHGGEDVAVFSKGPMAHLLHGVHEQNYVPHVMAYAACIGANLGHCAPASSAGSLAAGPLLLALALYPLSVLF

pIC50, active:
C/C(N)=C(/C#N)C(=O)CSc1n[nH]c(-c2ccccc2Br)n1 5.76, O=C1C2CC=CCC2C(=O)N1c1n[nH]c(Cc2ccccc2)n1 (stereo not drawn) 6.48, COCc1[nH]nc2c1C(c1cc(OC)c(O)c(OC)c1)C(C#N)=C(N)O2 (stereo not drawn) 5.28
